Earlier results as cited in publication PMC5289470, “The biodistribution of 5-[^18F]fluoropyrazinamide in Mycobacterium tuberculosis-infected mice determined by positron emission tomography” (PLoS ONE, 2017).

Tested on: PZA-resistant M. tuberculosis isolates
Conditions: ref [14], [30]; cited from earlier work

NC(=O)c1cnc(Cl)cn1 [5-Cl-PZA, 5-Chloropyrazinamide]
in vitro activity against PZA-resistant M. tuberculosis isolates: has in vitro activity
